Source: patent publication US20240415819A1, “MACROCYCLIC COMPOUNDS AS PROTEASOME SUBUNIT BETA TYPE-5 INHIBITORS” (Lead Discovery Center GmbH, priority 2021, published 2024)
Where two headings read alike, the source gives them in different places.

Legend:
[1] = biological target: T1, β5 subunit of the human immunoproteasome (IPS) (Homo sapiens, UniProt P28062); assay: β5 inhibition assay, human immunoproteasome (Suc-LLVY-AMC); format: biochemical; conditions: IC50 class, Suc-LLVY-AMC substrate
T1 construct: purchased Boston Biochem E-370
How it was run: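 Human immunoproteasome (1 nM final) was preincubated 10 min at RT with compound in 100 mM HEPES pH 7.5, 50 mM NaCl, 0.02% SDS, 1 mM DTT. Suc-LLVY-AMC (22.6 μM final) was then added for 4 h at RT in the dark. After stopping with 1 μM bortezomib, AMC fluorescence was read (ex 355/em 460 nm).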

[2] = test system: A549 (human lung carcinoma cell line); assay: Glo assay of A549 cells (Table 3; ProteasomeGlo plating scheme); format: cell-based; conditions: Homo sapiens
How it was run: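 After acoustic compound transfer, plates incubate 105 min (37° C., 5% CO2). Proteasome-Glo reagent containing Suc-LLVY-Glo substrate is added, plates are shaken, then luminescence is measured after 10-15 min to derive IC50 [nM]. Staurosporine and DMSO serve as controls.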

[3] = A549 cells, read-out: PGLo A549

Row | IC50 [1] [nM] | IC50 [2, 3] [nM] | SMILES | IC50 ([2]; A549, read-out: PGLo A549 [nM]) [nM]
1 | 100 to 500 | 500 to 1000 | CC(=O)N[C@H]1CC(=O)N(C)CCCCOc2ccc(C)c(c2)CNC(=O)[C@H](CCc2ccccc2)NC1=O [Compound 296, N-(1^4,7-dimethyl-8,11,14-trioxo-13-phenethyl-2-oxa-7,12,15-triaza-1(1,3)-benzenacyclohexadecaphane-10-yl)acetamide] | –
2 | < 100 | < 100 | Cc1ccc2cc1CNC(=O)[C@H](CCc1ccccc1)NC(=O)[C@@H](NC(=O)CC(C)(C)C)CC(=O)N1CCCC(CCO2)C1 (stereo partly drawn) [Compound 28, 3,3-dimethyl-N-((9S,12S)-5^4-methyl-8,11,14-trioxo-9-phenethyl-4-oxa-7,10-diaza-1(3,1)-piperidina-5(1,3)-benzenacyclotetradecaphane-12-yl)butanamide] | –
3 | < 100 | 100 to 500 | Cc1ccc2cc1CNC(=O)[C@H](CCc1ccccc1)NC(=O)[C@@H](NC(=O)OCc1ccccc1)CCCCC(=O)NCCCCO2 [Compound 347, benzyl ((13S,16S)-1^4-methyl-8,14,17-trioxo-16-phenethyl-2-oxa-7,15,18-triaza-1(1,3)-benzenacyclononadecaphane-13-yl)carbamate] | –
4 | < 100 | < 100 | CC(=O)c1ccc(CC(=O)N[C@H]2CC(=O)N3CCCC(CCOc4ccc(C)c(c4)CNC(=O)[C@H](CCc4ccccc4)NC2=O)C3)cc1 (stereo partly drawn) [Compound 341, 2-(4-acetylphenyl)-N-((9S,12S)-54-methyl-8,11,14-trioxo-9-phenethyl-4-oxa-7,10-diaza-1(3,1)-piperidina-5(1,3)-benzenacyclotetradecaphane-12-yl)acetamide] | –
5 | < 100 | < 100 | Cc1ccc2cc1CNC(=O)[C@@H](CCc1ccccc1)NC(=O)[C@H](NC(=O)C(C)(C)CS)CC(=O)N1CCCC(CCO2)C1 (stereo partly drawn) [Compound 348, 3-mercapto-2,2-dimethyl-N-((9S,12S)-5^4-methyl-8,11,14-trioxo-9-phenethyl-4-oxa-7,10-diaza-1(3,1)-piperidina-5(1,3)-benzenacyclotetradecaphane-12-yl)propanamide] | –
6 | < 100 | 1000 to 5000 | Cc1ccc2cc1CNC(=O)[C@H](CCc1ccccc1)NC(=O)[C@@H](NC(=O)OCc1ccccc1)CCCC(=O)NCCCCO2 [Compound 322, benzyl ((12S,15S)-1^4-methyl-8,13, 16-trioxo-15-phenethyl-2-oxa-7,14,17-triaza-1(1,3)-benzenacyclooctadecaphane-12-yl)carbamate] | –
7 | < 100 | < 100 | Cc1ccc2cc1CNC(=O)[C@H](CCc1ccccc1)NC(=O)[C@@H](NC(=O)C(C)(C)C)CC(=O)N1CCCC(CCO2)C1 (stereo partly drawn) [Compound 27, N-((9S,12S)-5^4-methyl-8,11,14-trioxo-9-phenethyl-4-oxa-7,10-diaza-1(3,1)-piperidina-5(1,3)-benzenacyclotetradecaphane-12-yl)pivalamide] | –
8 | < 100 | 100 to 500 | Cc1ccc2cc1CNC(=O)[C@H](CCc1ccccc1)NC(=O)[C@@H](NC(=O)Cc1nc(-c3ccncc3)n[nH]1)CC(=O)N1CCCC(CCO2)C1 (stereo partly drawn) [Compound 329, N-((9S,12S)-5^4-methyl-8,11,14-trioxo-9-phenethyl-4-oxa-7,10-diaza-1(3,1)-piperidina-5(1,3)-benzenacyclotetradecaphane-12-yl)-2-(3-(pyridin-4-yl)-1H-1,2,4-triazol-5-yl)acetamide] | –
9 | < 100 | < 100 | Cc1ccc2cc1CNC(=O)[C@H](CCc1ccccc1)NC(=O)[C@@H](NC(=O)OCc1ccccc1)CCCC(=O)N1CCC(CCO2)C1 (stereo partly drawn) [Compound 352, benzyl ((9S, 12S)-5^4-methyl-8,11,16-trioxo-9-phenethyl-4-oxa-7,10-diaza-1(3,1)-pyrrolidina-5(1,3)-benzenacyclohexadecaphane-12-yl)carbamate] | –
10 | < 100 | < 100 | Cc1ccc2cc1CNC(=O)[C@H](CCc1ccccc1)NC(=O)[C@@H](NC(=O)C(C)c1ccc(N)cc1)CC(=O)N1CCCC(CCO2)C1 (stereo partly drawn) [Compound 309, 2-(4-aminophenyl)-N-((9S,12S)-5^4-methyl-8,11,14-trioxo-9-phenethyl-4-oxa-7,10-diaza-1(3,1)-piperidina-5(1,3)-benzenacyclotetradecaphane-12-yl)propanamide] | –
11 | < 100 | < 100 | Cc1ccc2cc1CNC(=O)C(CCc1ccncc1)NC(=O)[C@@H](NC(=O)OCc1ccccc1)CC(=O)N1CCCC(CCO2)C1 (stereo partly drawn) [Compound 336, benzyl ((12S)-5^4-methyl-8,11,14-trioxo-9-(2-(pyridin-4-yl)ethyl)-4-oxa-7,10-diaza-1(3,1)-piperidina-5(1,3)-benzenacyclotetradecaphane-12-yl)carbamate] | –

Continued, molecule first:

Row | SMILES | IC50 [1] [nM] | IC50 [2, 3] [nM] | IC50 ([2]; A549, read-out: PGLo A549 [nM]) [nM]
12 | Cc1ccc2cc1CNC(=O)C(c1cnn(C)c1)NC(=O)[C@@H](NC(=O)[C@@H](C)c1ccccc1)CC(=O)N1CCCC(CCO2)C1 (stereo partly drawn) [Compound 359, (2S)-N-((12S)-5^4-methyl-9-(1-methyl-1H-pyrazol-4-yl)-8,11,14-trioxo-4-oxa-7,10-diaza-1(3,1)-piperidina-5(1,3)-benzenacyclotetradecaphane-12-yl)-2-phenylpropanamide] | < 100 | < 100 | –
13 | CC(=O)N[C@H]1CC(=O)N2CCCC(CCOc3ccc(C)c(c3)CNC(=O)C(c3ccc4ncccc4c3)NC1=O)C2 (stereo partly drawn) [Compound 554, N-((12S)-5^4-methyl-8,11,14-trioxo-9-(quinolin-6-yl)-4-oxa-7,10-diaza-1(3,1)-piperidina-5(1,3)-benzenacyclotetradecaphane-12-yl)acetamide] | < 100 | 100 to 500 | –
14 | Cc1ccc2cc1CNC(=O)[C@H](CCc1ccccc1)NC(=O)[C@@H](Nc1ncccn1)CC(=O)N1CCCC(CCO2)C1 (stereo partly drawn) [Compound 34, (9S,12S)-5^4-methyl-9-phenethyl-12-(pyrimidin-2-ylamino)-4-oxa-7,10-diaza-1(3,1)] | < 100 | – | < 100
15 | CC(=O)N[C@H]1CC(=O)N2CCCC(CCOc3ccc(C)c(c3)CNC(=O)C(CCC3CCN(C(C)=O)CC3)NC1=O)C2 (stereo partly drawn) [Compound 338, N-((12S)-9-(2-(1-acetylpiperidin-4-yl)ethyl)-5^4-methyl-8,11,14-trioxo-4-oxa-7,10-diaza-1(3,1)-piperidina-5(1,3)-benzenacyclotetradecaphane-12-yl)acetamide] | < 100 | 100 to 500 | –
16 | CC(=O)N[C@H]1CC(=O)N2CCCC(CCOc3ccc(C)c(c3)CNC(=O)C(CCc3nccs3)NC1=O)C2 (stereo partly drawn) [Compound 563, N-((12S)-5^4-methyl-8,11,14-trioxo-9-(2-(thiazol-2-yl)ethyl)-4-oxa-7,10-diaza-1(3,1)-piperidina-5(1,3)-benzenacyclotetradecaphane-12-yl)acetamide] | < 100 | < 100 | –
17 | Cc1ccc2cc1CNC(=O)[C@H](CCc1ccccc1)NC(=O)[C@@H](NC(=O)OCc1ccccc1)CC(=O)N1CC(CCO2)CC2CCCCC21 (stereo partly drawn) [Compound 314, benzyl ((9S,12S)-5^4-methyl-8,11,14-trioxo-9-phenethyl-11,12,13,14,14a,15,16,17,18,18a-decahydro-4-oxa-7,10-diaza-1(3,1)-quinolina-5(1,3)-benzenacyclotetradecaphane-12-yl)carbamate] | < 100 | < 100 | –
18 | CC(=O)N[C@H]1CC(=O)N2CCCC(CCOc3ccc(C)c(c3)CNC(=O)C(Cc3ccccc3)NC1=O)C2 (stereo partly drawn) [Compound 558, N-((12S)-9-benzyl-5^4-methyl-8,11,14-trioxo-4-oxa-7,10-diaza-1(3,1)-piperidina-5(1,3)-benzenacyclotetradecaphane-12-yl)acetamide] | < 100 | 100 to 500 | –
19 | CC(=O)N[C@H]1CCC(=O)N2CC3CC(Oc4ccc(C)c(c4)CNC(=O)[C@H](CCc4ccccc4)NC1=O)C3C2 (stereo partly shown) [Compound 299, N-(3^4-methyl-6,9,13-trioxo-7-phenethyl-2-oxa-13,5,8-triaza-1(6,3)-bicyclo[3.2.0]heptana-3(1,3)-benzenacyclotridecaphane-10-yl)acetamide] | 500 to 1000 | > 5000 | –
20 | Cc1ccc2cc1CNC(=O)C(c1cnn(C)c1)NC(=O)[C@@H](NC(=O)C1CCCc3ccccc31)CC(=O)N1CCCC(CCO2)C1 (stereo partly drawn) [Compound 360, N-((12S)-5^4-methyl-9-(1-methyl-1H-pyrazol-4-yl)-8,11,14-trioxo-4-oxa-7,10-diaza-1(3,1)-piperidina-5(1,3)-benzenacyclotetradecaphane-12-yl)-1,2,3,4-tetrahydronaphthalene-1-carboxamide] | < 100 | < 100 | –
21 | CC(=O)N[C@H]1CC(=O)N2CCCC(CCOc3ccc(C)c(c3)CNC(=O)C(c3cnn(CCOCCOCCOCCN)c3)NC1=O)C2 (stereo partly drawn) [Compound 566, N-((12S)-9-(1-(2-(2-(2-(2-aminoethoxy)ethoxy)ethoxy)ethyl)-1H-pyrazol-4-yl)-5^4-methyl-8,11,14-trioxo-4-oxa-7,10-diaza-1(3,1)-piperidina-5(1,3)-benzenacyclotetradecaphane-12-yl)acetamide] | < 100 | < 100 | –
22 | Cc1ccc2cc1CNC(=O)C(CCc1ccncc1)NC(=O)[C@@H](NC(=O)Cc1nnc(N)s1)CC(=O)N1CCCC(CCO2)C1 (stereo partly drawn) [Compound 342, 2-(5-amino-1,3,4-thiadiazol-2-yl)-N-((12S)-5^4-methyl-8,11,14-trioxo-9-(2-(pyridin-4-yl)ethyl)-4-oxa-7,10-diaza-1(3,1)-piperidina-5(1,3)-benzenacyclotetradecaphane-12-yl)acetamide] | < 100 | < 100 | –
23 | Cc1ccc2cc1CNC(=O)[C@H](CCc1ccccc1)NC(=O)[C@@H](NC1COC1)CC(=O)N1CCCC(CCO2)C1 (stereo partly drawn) [Compound 35, (9S,12S)-5^4-methyl-12-(oxetan-3-ylamino)-9-phenethyl-4-oxa-7,10-diaza-1(3,1)-piperidina-5(1,3)-benzenacyclotetradecaphane-8,11,14-trione] | < 100 | 100 to 500 | –
